This note sets out measurements from patent US20230233500A1, “Gasdermin D (GSDMD) Succination for the Treatment of Inflammatory Disease” (University of Massachusetts, priority 2020, published 2023).

Structures can show the parent of a compound that is named as a salt.

Assay [1] deals with T1, GSDMD (Mus musculus, UniProt Q9D8T2).
T1 construct: We also immunoprecipitated GSDMD from fumarate treated BMDMs; endogenous in cells; host or cells: primary mouse BMDMs
T1 sequence (Q9D8T2 1-487): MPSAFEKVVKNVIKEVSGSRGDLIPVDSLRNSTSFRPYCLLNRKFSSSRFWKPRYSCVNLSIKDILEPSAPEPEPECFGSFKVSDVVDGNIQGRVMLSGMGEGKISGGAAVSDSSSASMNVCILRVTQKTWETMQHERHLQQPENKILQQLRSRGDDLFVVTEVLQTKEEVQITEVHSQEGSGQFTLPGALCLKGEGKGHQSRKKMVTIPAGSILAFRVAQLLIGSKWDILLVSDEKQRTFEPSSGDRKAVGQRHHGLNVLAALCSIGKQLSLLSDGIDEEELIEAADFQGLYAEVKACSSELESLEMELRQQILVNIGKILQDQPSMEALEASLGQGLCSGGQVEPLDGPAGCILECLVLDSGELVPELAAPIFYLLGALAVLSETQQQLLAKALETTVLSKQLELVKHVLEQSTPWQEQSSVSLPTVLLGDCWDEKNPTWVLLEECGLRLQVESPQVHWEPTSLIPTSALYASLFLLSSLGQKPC
Description: MMF-Yne click chemistry labeling and streptavidin pulldown in BMDM lysates. It is filed as binding. Here is the method: FIG. 10. Illustrative schematic of click-chemistry based proteomics. Schematic representation of MMF-Yne proteomics. Primary WT BMDMs were treated with LPS for 2 hrs, MMF-Yne for 1 hour and nigericin (10 μM) for 1 hour. Lysates were subsequently Cu2+ clicked using a biotin-azide and streptavidin beads for pulldown of MMF-Yne interacting proteins. Streptavidin beads were digested using trypsin, reduced and alkylated and subjected to mass spec analysis.
Cells treated with or without the MMF-Alkyne probe were lysed and quantified by protein DC assay. Proteome samples (2 mg/ml) were incubated with TCEP, TBTA ligand, copper sulphate and Biotin Azide for 1 hour at room temperature with vortexing every 15 minutes. Precipitated proteins were centrifuged for 5 minutes at 4,600 g. Protein pellets were washed twice with ice cold methanol and sonicated in 1.2% SDS. Samples were heated at 95° C. for 5 minutes and diluted to a final volume of […] with PBS (0.2% SDS). An aliquot of the post-clicked lysate was retained and the remainder was incubated with streptavidin beads on a rotator overnight at 4 C. Samples were rotated at room temperature for 2 hours to resolubilize the SDS. Beads were washed five times with 0.2% SDS/PBS and placed on a rotator for 10 minutes in between washes. Beads were washed with ultra-pure water a further 3 times. […]

In assay [2] the test system is GSDMD-deficient BMDMs (GSDME). Description: Cell death in GSDMD-deficient BMDMs. It is filed as cell-based, mouse. From the text: FIGS. 3A-J. Fumarate targets GSDMD and Gasdermin E (GSDME). Kinetic cell death of WT and Gsdmd-BMDMs (A) or WT/GSDMD^−/− THP1 cells (B) treated as indicated. LDH and IL-1β release from WT and Gsdmd^−/− BMDMs (C-D). Immunoblot of GSDMD and GSDME in native and reduced cell lysates from BMDMs (E). Immunoblot of GSDME in streptavidin pulldown from clicked lysates (F). Representative Mass spectra of succinated GSDME (G-H). Immunoblot analysis of GSDMD and GSDME from WT and Gsdmcd^−/− BMDMs (I). A, B representative of three independent experiments. C, D, I pooled data from three independent experiments. E, F, J representative images from 3 independent experiments. ***, P<0.0001, […] (Two-way ANOVA). Error bars show means±SEM.
FIGS. 13A-B. Fumarate inhibits GSDMD and GSDME comparably. (A) Kinetic cell death data of WT (left-panel) and GSDMD−/− (right-panel) primary BMDMs with LPS for 2 hours, DMSO (vehicle) or fumarate (0-50 μM) followed by nigericin (10 μM) for 6 hours. (B) Immunoblot analysis of GSDMD, GSDME and -actin in cell lysates from WT and GSDMD−/− BMDMs treated as in (A).
Cells were plated, treated and incubated in phenol red free medium. Following treatment medium was collected and assessed for LDH release using the CytoTox96 non-radioactive cytotoxicity assay (Promega) as per manufacturer's instructions. Kinetic cell death assays were performed using SytoxOrange and the Biotek Cytation5.

Regarding `COC(=O)/C=C/C(=O)OC` [Fumarate, Dimethyl fumarate], the “MMF-Yne labeling of GSDMD in presence of competitor” value in assay [1] (streptavidin pulldown from clicked lysates) is recorded as “blocked”. In assay [1] (streptavidin-IR dye immunoblot), the “MMF-Yne signal in pyroptotic lysates in presence of unlabeled competitor” value is on record as “reduced”. Moreover, the “cell death (GSDMD-independent, GSDME-dependent)” value in assay [2] (GSDMD-deficient BMDMs, kinetic) is given as “inhibited cell death”. For the same compound, in assay [2] (GSDMD-deficient cells, immunoblot), the “GSDME processing / generation of GSDME-N” value is recorded as “blocked”. Besides, the “inhibition of GSDMD-driven versus GSDME-driven cell death” value in assay [2] (WT and GSDMD-/- BMDMs, fumarate 0-50 μM, nigericin 6 hours) is listed as “comparably”.
